Measured values from publication PMC7043280 (European journal of medicinal chemistry, 2018).
Each block holds one molecule with its values, some of them ahead of it.

How the values were obtained:
NMDAR = settings: cited from earlier work; for NMDAR agonist activity or effect on the holding current: ref Saptoka et al., 2017
[1] = tested on: GluN1/GluN2A-D diheteromeric NMDARs; experiment: TEVC electrophysiology, values stated in the text across several GluN2 subtypes; format: cell-based, rat
GluN1/GluN2A NMDAR [2] = biological target: T1, GluN1/GluN2A NMDAR (Rattus norvegicus, UniProt P35439+Q00959); experiment: TEVC electrophysiology on recombinant NMDA receptors; format: cell-based
[3] = tested on: GluN1/GluN2A-D diheteromeric NMDARs; settings: cited from earlier work
GluN1/GluN2B NMDAR = GluN1/GluN2B NMDAR (Rattus norvegicus, UniProt P35439+Q00960); experiment: TEVC electrophysiology on recombinant NMDA receptors; format: cell-based; settings: for fold greater inhibitory activity on GluN2B compared to 7: from IC50 values, Table 6
GluN1/GluN2D NMDAR = GluN1/GluN2D NMDAR (Rattus norvegicus, UniProt P35439+Q62645); experiment: as above; format: cell-based; settings: for percentage maximum inhibition of the agonist response, GluN2D: value in parenthesis, ± s.e.m., L-glutamate 10 μM and glycine 10 μM
GluN1/GluN2C NMDAR = GluN1/GluN2C NMDAR (Rattus norvegicus, UniProt P35439+Q00961); experiment: as above; format: cell-based; settings: from IC50 values, Table 6
GluN1/GluN2A NMDAR [4] = biological target: T1, GluN1/GluN2A NMDAR; settings: ref 7a; cited from earlier work

T1 sequence (Q00959 23-1464, other chains not shown): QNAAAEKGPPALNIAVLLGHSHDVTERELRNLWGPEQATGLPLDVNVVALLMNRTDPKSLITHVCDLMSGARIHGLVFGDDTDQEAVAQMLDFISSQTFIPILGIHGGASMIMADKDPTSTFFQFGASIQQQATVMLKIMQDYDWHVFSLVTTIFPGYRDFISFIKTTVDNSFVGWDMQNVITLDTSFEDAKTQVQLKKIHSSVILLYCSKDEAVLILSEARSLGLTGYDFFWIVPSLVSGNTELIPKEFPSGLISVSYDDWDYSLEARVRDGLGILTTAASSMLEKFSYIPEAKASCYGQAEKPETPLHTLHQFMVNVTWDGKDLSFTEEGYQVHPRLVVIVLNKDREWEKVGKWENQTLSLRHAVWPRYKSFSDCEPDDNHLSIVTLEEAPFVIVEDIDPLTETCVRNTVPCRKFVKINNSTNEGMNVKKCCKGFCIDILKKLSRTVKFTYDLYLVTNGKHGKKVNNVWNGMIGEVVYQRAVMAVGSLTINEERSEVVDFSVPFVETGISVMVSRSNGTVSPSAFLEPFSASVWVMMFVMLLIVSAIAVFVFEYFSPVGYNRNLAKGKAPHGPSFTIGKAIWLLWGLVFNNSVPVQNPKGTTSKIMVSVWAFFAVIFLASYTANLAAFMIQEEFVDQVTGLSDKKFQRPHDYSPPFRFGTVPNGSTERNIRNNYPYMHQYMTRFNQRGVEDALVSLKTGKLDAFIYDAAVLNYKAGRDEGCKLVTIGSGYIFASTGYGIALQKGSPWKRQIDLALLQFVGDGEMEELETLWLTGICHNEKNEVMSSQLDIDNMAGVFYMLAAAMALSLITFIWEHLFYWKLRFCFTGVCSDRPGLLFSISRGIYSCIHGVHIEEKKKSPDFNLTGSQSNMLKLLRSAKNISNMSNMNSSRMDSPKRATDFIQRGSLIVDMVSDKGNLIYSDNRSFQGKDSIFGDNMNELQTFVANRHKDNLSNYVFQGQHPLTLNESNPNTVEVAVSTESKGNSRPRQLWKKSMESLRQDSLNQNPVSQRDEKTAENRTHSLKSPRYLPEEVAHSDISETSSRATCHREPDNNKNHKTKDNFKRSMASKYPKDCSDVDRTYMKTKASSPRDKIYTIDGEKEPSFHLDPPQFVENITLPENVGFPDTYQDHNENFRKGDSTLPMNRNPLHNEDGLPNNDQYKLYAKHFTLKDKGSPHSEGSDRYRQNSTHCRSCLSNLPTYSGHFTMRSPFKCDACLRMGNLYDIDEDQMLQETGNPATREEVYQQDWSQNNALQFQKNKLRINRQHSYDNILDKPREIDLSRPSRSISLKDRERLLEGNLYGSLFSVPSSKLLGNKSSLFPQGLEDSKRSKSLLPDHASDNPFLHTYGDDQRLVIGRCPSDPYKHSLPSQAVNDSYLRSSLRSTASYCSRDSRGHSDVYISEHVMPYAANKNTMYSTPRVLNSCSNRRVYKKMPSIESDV
Sequence of GluN1/GluN2B NMDAR (Q00960 27-1482, other chains not shown): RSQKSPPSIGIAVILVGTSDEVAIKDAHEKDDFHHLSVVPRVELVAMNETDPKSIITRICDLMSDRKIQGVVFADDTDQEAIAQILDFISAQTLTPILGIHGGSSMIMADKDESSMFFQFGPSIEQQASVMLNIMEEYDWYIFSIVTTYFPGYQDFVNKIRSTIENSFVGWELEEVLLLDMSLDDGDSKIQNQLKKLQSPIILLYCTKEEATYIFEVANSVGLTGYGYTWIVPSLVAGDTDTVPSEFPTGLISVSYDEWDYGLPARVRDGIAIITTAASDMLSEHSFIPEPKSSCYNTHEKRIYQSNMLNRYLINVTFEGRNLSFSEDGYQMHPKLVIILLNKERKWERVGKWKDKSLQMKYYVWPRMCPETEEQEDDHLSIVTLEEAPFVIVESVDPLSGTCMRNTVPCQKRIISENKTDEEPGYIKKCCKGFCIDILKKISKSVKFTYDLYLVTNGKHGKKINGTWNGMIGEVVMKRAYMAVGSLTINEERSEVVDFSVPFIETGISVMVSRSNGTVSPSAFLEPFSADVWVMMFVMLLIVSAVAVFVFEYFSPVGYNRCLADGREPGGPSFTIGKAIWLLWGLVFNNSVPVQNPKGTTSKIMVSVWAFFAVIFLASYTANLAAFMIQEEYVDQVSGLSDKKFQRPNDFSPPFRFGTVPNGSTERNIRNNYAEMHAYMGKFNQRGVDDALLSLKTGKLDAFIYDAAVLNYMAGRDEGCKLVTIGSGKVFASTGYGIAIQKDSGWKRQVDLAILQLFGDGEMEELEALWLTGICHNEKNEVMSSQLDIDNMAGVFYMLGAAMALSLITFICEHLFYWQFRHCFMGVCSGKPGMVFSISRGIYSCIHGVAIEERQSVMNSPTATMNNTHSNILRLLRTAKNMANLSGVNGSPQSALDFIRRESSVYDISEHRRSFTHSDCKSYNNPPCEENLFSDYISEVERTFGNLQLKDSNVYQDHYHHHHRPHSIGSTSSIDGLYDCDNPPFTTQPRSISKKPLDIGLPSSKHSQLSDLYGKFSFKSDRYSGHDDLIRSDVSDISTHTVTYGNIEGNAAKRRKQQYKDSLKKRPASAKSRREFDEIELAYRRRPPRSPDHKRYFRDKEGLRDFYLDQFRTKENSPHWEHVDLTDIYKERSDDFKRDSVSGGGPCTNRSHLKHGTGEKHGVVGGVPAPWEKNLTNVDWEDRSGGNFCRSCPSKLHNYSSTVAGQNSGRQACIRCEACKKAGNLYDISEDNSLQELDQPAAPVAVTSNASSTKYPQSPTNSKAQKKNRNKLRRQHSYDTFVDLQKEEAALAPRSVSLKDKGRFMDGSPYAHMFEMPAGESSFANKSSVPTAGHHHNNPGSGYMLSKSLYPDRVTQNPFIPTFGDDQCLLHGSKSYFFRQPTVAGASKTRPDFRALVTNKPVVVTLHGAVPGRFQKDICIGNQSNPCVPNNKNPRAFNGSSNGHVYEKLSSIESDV
Sequence of GluN1/GluN2D NMDAR (Q62645 28-1323, other chains not shown): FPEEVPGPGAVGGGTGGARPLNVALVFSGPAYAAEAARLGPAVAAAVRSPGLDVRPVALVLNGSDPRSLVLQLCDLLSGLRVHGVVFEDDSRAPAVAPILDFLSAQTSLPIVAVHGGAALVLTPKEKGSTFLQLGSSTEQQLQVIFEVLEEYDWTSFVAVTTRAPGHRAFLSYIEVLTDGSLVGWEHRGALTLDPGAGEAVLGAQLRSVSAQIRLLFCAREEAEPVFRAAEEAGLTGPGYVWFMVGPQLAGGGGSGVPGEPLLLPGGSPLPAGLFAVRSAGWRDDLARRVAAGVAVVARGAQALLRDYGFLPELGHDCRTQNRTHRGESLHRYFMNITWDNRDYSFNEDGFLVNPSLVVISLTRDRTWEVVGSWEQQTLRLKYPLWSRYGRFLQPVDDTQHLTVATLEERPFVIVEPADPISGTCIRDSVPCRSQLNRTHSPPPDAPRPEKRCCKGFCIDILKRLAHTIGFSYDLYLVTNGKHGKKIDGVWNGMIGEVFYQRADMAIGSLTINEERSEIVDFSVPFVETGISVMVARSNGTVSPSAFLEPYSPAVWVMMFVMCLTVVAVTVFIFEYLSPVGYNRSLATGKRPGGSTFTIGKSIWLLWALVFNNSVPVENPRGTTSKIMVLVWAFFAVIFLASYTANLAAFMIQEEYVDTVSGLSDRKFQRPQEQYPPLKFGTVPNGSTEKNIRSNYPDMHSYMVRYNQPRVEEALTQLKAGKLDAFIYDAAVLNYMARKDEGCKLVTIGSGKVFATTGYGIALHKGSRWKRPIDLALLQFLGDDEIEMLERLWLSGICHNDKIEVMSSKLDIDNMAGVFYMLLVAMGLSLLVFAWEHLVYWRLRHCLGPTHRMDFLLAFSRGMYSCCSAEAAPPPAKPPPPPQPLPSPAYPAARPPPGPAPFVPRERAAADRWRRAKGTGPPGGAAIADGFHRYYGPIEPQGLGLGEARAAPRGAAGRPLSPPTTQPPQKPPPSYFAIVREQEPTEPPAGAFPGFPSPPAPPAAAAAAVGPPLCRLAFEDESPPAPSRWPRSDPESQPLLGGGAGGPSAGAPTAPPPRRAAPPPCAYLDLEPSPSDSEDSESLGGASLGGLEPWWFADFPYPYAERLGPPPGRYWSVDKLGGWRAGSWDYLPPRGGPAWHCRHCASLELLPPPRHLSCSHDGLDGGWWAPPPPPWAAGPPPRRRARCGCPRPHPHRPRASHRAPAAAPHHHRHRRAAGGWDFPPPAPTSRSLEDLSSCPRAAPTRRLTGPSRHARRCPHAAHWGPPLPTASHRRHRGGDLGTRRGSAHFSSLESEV

SMILES: CC(C)CCC(C)c1ccc2cc(C(=O)O)ccc2c1 (racemic) [Compound 46, (RS)-6-(5-Methylhexan-2-yl)-2-naphthoic acid]
NMDAR agonist activity or effect on the holding current (NMDAR): no NMDAR agonist activity or effect on the holding current

SMILES: CCc1ccc2cc(C(=O)O)ccc2c1 [6-ethyl derivative]
percentage inhibition on GluN2A-D ([1]; 100 μM, range over GluN2A-D): 17–52%

inhibition at 100 µM (GluN1/GluN2A NMDAR [2]; read-out: inhibition of the agonist response on GluN2A): 26 ± 2%
SMILES: O=C(O)c1ccc2cc(I)ccc2c1 [6-iodo-2-naphthoic acid]
inhibitory activity on GluN2B-D ([1]; 100 μM, range over GluN2B-D): 9–12%

SMILES: CCCc1ccc2cc(C(=O)O)ccc2c1 [6-n-propyl derivative]
percentage inhibition on GluN2A-D ([1]; 100 μM, range over GluN2A-D): 0–14%

SMILES: O=C(O)c1ccc2cc(I)c3ccccc3c2c1 [Compound 1, reference compound]
glutamate-site or glycine-site NMDAR agonist activity; activity in the absence of agonists (NMDAR): did not display glutamate-site or glycine-site NMDAR agonist activity

SMILES: O=C(O)c1cc2cc(-c3ccccc3)ccc2cc1O [Compound 7, reference compound]
maximal inhibition of GluN2A and GluN2B [3]: 57–72% | glutamate-site or glycine-site NMDAR agonist activity; activity in the absence of agonists (NMDAR): did not display glutamate-site or glycine-site NMDAR agonist activity

EC50 ([1]; read-out: EC50 values across GluN2A-D, range over GluN2A-D): 28 to 37.2 µM
SMILES: CC(C)CCCc1ccc2cc(C(=O)O)ccc2c1 [Compound 14b, 6-(4-Methylpent-1-yl)-2-naphthoic acid]
NMDAR agonist activity or effect on the holding current (NMDAR): no NMDAR agonist activity or effect on the holding current | potentiation across GluN2A-D ([1]; 100 μM): > 170%

SMILES: CCCCCc1ccc2cc(CC(=O)O)ccc2c1 [Compound 21, (6-n-Pent-1-ylnaphthalen-2-yl)acetic acid]
inhibition on at least one of the GluN1/GluN2 subtypes ([1]; 100 μM): ≥ 50%

SMILES: CCCCOc1ccc2cc(C(=O)O)ccc2c1 [Compound 24, 6-Butoxy-2-naphthoic acid]
inhibition on at least one of the GluN1/GluN2 subtypes ([1]; 100 μM): ≥ 50%

SMILES: CC(C)CNC(=O)c1ccc2cc(C(=O)O)ccc2c1 [Compound 52, 6-(Isobutylcarbamoyl)-2-naphthoic acid]
inhibition on at least one of the GluN1/GluN2 subtypes ([1]; 100 μM): ≥ 50%

SMILES: CC(C)C(=O)OCc1ccc2cc(C(=O)O)ccc2c1 [Compound 54, 6-((Isobutyryloxy)methyl)-2-naphthoic acid]
inhibition on at least one of the GluN1/GluN2 subtypes ([1]; 100 μM): ≥ 50%

SMILES: CC(C)COCc1ccc2cc(C(=O)O)ccc2c1 [Compound 57, 6-(Isobutoxymethyl)-2-naphthoic acid]
inhibition on at least one of the GluN1/GluN2 subtypes ([1]; 100 μM): ≥ 50%

fold greater inhibitory activity on GluN2B compared to 7 (GluN1/GluN2B NMDAR): ~ 10 fold
SMILES: O=C(O)c1cc2cc(/C=C/c3ccccc3)ccc2cc1O [Compound 79a, (E)-3-Hydroxy-7-styryl-2-naphthoic acid]
fold greater inhibitory activity on GluN2C and GluN2D compared to 7 ([1]; GluN2C and GluN2D, from IC50 values, Table 6): 3–5 fold | maximal inhibition across GluN2A-D ([1]; range over GluN2A-D): 83–94%

fold higher IC50 on GluN2B compared to 79a (GluN1/GluN2B NMDAR): 4 fold | percentage maximum inhibition of the agonist response, GluN2A (GluN1/GluN2A NMDAR [2]; value in parenthesis, ± s.e.m., L-glutamate 10 μM and glycine 10 μM): 30% | percentage maximum inhibition of the agonist response, GluN2D (GluN1/GluN2D NMDAR): 70–80% | fold lower IC50 on GluN2A and GluN2D compared to 79a ([1]; GluN2A and GluN2D): 3 fold
SMILES: O=C(O)c1cc2cc(/C=C/c3ccccc3[N+](=O)[O-])ccc2cc1O [Compound 79h, (E)-3-Hydroxy-7-(2-nitrostyryl)-2-naphthoic acid]
maximal inhibition of GluN2B-D ([1]; range over GluN2B-D): 60–80%

fold greater inhibitory activity on GluN2B compared to 7 (GluN1/GluN2B NMDAR): 10 fold | fold higher inhibitory activity on GluN2C compared to 7 (GluN1/GluN2C NMDAR): 5 fold | fold higher inhibitory activity on GluN2D compared to 7 (GluN1/GluN2D NMDAR; from IC50 values, Table 6): 35 fold | percentage maximum inhibition of the agonist response, GluN2D (GluN1/GluN2D NMDAR): 70–80%
SMILES: O=C(O)c1cc2cc(/C=C/c3cccc([N+](=O)[O-])c3)ccc2cc1O [Compound 79i, (E)-3-Hydroxy-7-(3-nitrostyryl)-2-naphthoic acid]

SMILES: O=C(O)c1cc2cc(Br)ccc2oc1=O [UBP608]
selectivity for GluN2A over GluN2D (GluN1/GluN2A NMDAR [4]): 23 fold
